From patent US20210000814A1, “RIMEGEPANT FOR CGRP RELATED DISORDERS” (Biohaven Pharmaceutical Holding Company Ltd., priority 2018, published 2021)

Tested on: subjects with Acute Migraines
Test: BHV3000-302 Phase 3 trial, acute treatment of migraine: efficacy
Type: in vivo, human
Conditions: Study 302; P<0.0001
Method: Clinical Trial—BHV3000-302: Phase 3: Double-Blind, Randomized, Placebo-Controlled, Safety and Efficacy Trial of BHV-3000 (Rimegepant) for the Acute Treatment of Migraine (ClinicalTrials.gov Identifier: NCT03237845) • A phase 3 clinical study was conducted with 1503 participants, as follows. […] Pain Freedom of rimegepant (75 mg tablet) compared with placebo in the acute treatment of migraine will be measured using the number of evaluable subjects that report no pain at 2 hours post-dose. [Time Frame: Two hours post dose] • Pain will be measured on a 4 point Likert scale (0=none, 1=mild, 2=moderate, 3=severe) • 2. Freedom from the most bothersome symptom (MBS) of rimegepant (75 mg tablet) compared with placebo will be measured using the number of evaluable subjects that report the absence of their MBS at 2 hours post-dose. […] The MBS (nausea, phonophobia or photophobia) will measured using a binary scale (0=absent, 1=present). […] [Time Frame: 2 hours-24 hours post-dose] • Sustained Pain Freedom as measured by a 4 point numeric rating scale (None, Mild, Moderate, Severe) • 2. […] [Time Frame: 2 hours post-dose] • Pain Relief as measured by a 4 point numeric rating scale (None, Mild, Moderate, Severe) • 5. […] [Time Frame: 2 hours-48 hours post-dose] • Sustained Pain Freedom as measured by a 4 point numeric rating scale (None, Mild, Moderate, Severe) • 8. […]

Structure (SMILES): N[C@@H]1c2cccnc2[C@H](OC(=O)N2CCC(n3c(=O)[nH]c4ncccc43)CC2)CC[C@H]1c1cccc(F)c1F [Rimegepant, [(55,65,9R)-5-amino-6-(2,3-difluorophenyl)-6,7,8,9-tetrahydro-5H-cyclohepta[b]pyridin-9-yl]4-(2-oxo-3H-imidazo[4,5-b]pyridin-1-yl)piperidine-1-carboxylate]
- patients achieving normal function at 2 hours (functional disability) versus placebo: greater proportion
